# Patent US12187773B2, “Modified GIP peptide analogues” (Antag Therapeutics ApS, priority 2018, dated 2025)
# *1 amine or outer side, *2 acyl side, *3 side chain or, on linkers, in order; H or OH if unused. Where a SMILES comes first, the peptide text is derived from it. Side-chain parts run from the residue outwards. The star is where a group is joined. C18 diacid = O=C(O)CCCCCCCCCCCCCCCCC(=O)*; γGlu = O=C(O)[C@H](CCC(=O)[*:2])N[*:1]; AEEA = NCCOCCOCC(=O)O
# Columns and labels:
# Assay type in all cases: cell-based
# human GIP receptor [1] = molecular target: T1, human GIP receptor (Homo sapiens, UniProt P48546); experiment: cAMP antagonism (CisBio cAMP Dynamic 2 HTRF assay); set-up: pCMV-Script vector; conditions: Table 1C, CisBio, HEK-293 cells
# T1 sequence (P48546 22-466): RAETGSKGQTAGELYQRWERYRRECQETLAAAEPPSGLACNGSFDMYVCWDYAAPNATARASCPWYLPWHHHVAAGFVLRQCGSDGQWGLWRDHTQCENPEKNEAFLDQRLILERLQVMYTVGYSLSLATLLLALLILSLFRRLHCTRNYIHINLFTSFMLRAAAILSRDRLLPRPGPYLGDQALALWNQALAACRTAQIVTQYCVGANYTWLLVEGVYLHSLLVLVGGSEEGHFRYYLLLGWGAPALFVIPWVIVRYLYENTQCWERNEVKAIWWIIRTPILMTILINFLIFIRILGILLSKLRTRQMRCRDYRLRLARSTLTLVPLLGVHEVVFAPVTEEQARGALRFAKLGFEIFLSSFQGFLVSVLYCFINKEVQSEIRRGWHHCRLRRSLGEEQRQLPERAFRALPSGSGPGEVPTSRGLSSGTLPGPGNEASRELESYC
# Outline: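 Four-parameter fits of cAMP dose-response gave pIC50. cAMP fall was quantified by HTRF competition, ratio 665/620 nm after 60 min at room temperature, against a cAMP standard curve.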
# human GIP receptor [2] = molecular target: T1, human GIP receptor; experiment: cAMP accumulation, antagonism (DiscoveRx HitHunter cAMP XS assay); set-up: host or cells: COS-7 (transient, calcium phosphate; pCMV-Script vector); conditions: Table 1B, DiscoveRx; for cAMP antagonism, % inhib: COS-7 cells, % inhibition of Emax; for IC50: cAMP antagonism, nM (IC50), transiently transfected COS-7 cells
# Outline: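 Transiently transfected COS-7 cells expressing human GIP receptor, pretreated with 1 mM IBMX in HBS 30 min at 37 °C. Agonism: ligand 30 min at 37 °C; antagonism: 10 min antagonist preincubation, then GIP at 50-80% maximal response for 20 min. cAMP measured by HitHunter cAMP XS.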
# human GIP receptor [3] = molecular target: T1, human GIP receptor; experiment: cAMP accumulation, agonism (DiscoveRx HitHunter cAMP XS assay); set-up: host or cells: COS-7 (transient, calcium phosphate; pCMV-Script vector); conditions: Table 1B; DiscoveRx; COS-7 cells
# Outline: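 cAMP accumulation measured by HitHunter cAMP XS in COS-7 cells transiently expressing human GIP receptor, after 30 min in HBS with 1 mM IBMX at 37 °C. Antagonists preincubated 10 min before GIP giving 50-80% of maximum, then 20 min more; agonist mode used 30 min ligand exposure.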
# human GIP receptor [4] = molecular target: T1, human GIP receptor; experiment: cAMP agonism (CisBio cAMP Dynamic 2 HTRF assay); conditions: HEK293, read-out: cAMP agonism, % Efficacy, Table 1C, HEK-293 cells
# Experimental: To test for agonistic properties at the GIP receptor, compounds were diluted and added to cells as described above and incubated for 30 min at 37° C. The resulting increase in intracellular cAMP was determined using the CisBio cAMP Dynamic 2 HTRF Assay Kit as described above.
smiles,measurement,setting,value
"CC[C@H](C)[C@H](NC(=O)[C@H](CO)NC(=O)[C@H](Cc1ccc(O)cc1)NC(=O)[C@H](CC(=O)O)NC(=O)[C@H](CO)NC(=O)[C@@H](NC(=O)[C@H](Cc1ccccc1)NC(=O)[C@@H](NC(=O)CNC(=O)[C@@H](N)CCC(=O)O)[C@@H](C)O)[C@@H](C)CC)C(=O)N[C@@H](C)C(=O)N[C@@H](CCSC)C(=O)N[C@@H](CC(=O)O)C(=O)N[C@@H](CCCNC(=N)N)C(=O)N[C@H](C(=O)N[C@@H](CCCCNC(=O)COCCOCCNC(=O)CC[C@H](NC(=O)CCCCCCCCCCCCCCCCC(=O)O)C(=O)O)C(=O)N[C@@H](CCC(N)=O)C(=O)N[C@@H](CCC(N)=O)C(=O)N[C@@H](CC(=O)O)C(=O)N[C@@H](Cc1ccccc1)C(=O)N[C@H](C(=O)N[C@@H](CC(N)=O)C(=O)N[C@@H](Cc1c[nH]c2ccccc12)C(=O)N[C@@H](CC(C)C)C(=O)N[C@@H](CC(C)C)C(=O)N[C@@H](C)C(=O)N[C@@H](CCC(N)=O)C(=O)N[C@@H](CCCNC(=N)N)C(N)=O)C(C)C)[C@@H](C)CC [AT376] (HELM PEPTIDE1{E.G.T.F.I.S.D.Y.S.I.A.M.D.R.I.K.Q.Q.D.F.V.N.W.L.L.A.Q.R.[am]}|PEPTIDE2{[O=C(O)CCCCCCCCCCCCCCCCC(=O)[*:2]].[gGlu].[O=C(COCCOCCN[*:1])[*:2]]}$PEPTIDE1,PEPTIDE2,16:R3-3:R2$$$V2.0; N-terminus assumed)","cAMP antagonism, % inhib",human GIP receptor [1],87%
same,IC50,"human GIP receptor [1]; cAMP antagonism, nM (IC50), agonist GIP1-42 at EC50",6.81 nM
same,"cAMP antagonism, % inhib",human GIP receptor [2],90%
same,IC50,human GIP receptor [2],19 nM
same,"cAMP agonism, Emax",human GIP receptor [3],No Agonism
same,Emax,human GIP receptor [4],0%
CC[C@H](C)[C@H](NC(=O)[C@H](CO)NC(=O)[C@H](Cc1ccc(O)cc1)NC(=O)[C@H](CC(=O)O)NC(=O)[C@H](CO)NC(=O)[C@@H](NC(=O)[C@H](Cc1ccccc1)NC(=O)[C@@H](NC(=O)CNC(=O)[C@@H](N)CCC(=O)O)[C@@H](C)O)[C@@H](C)CC)C(=O)N[C@@H](C)C(=O)N[C@@H](CCSC)C(=O)N[C@@H](CC(=O)O)C(=O)N[C@@H](CCCNC(=N)N)C(=O)N[C@H](C(=O)N[C@@H](CCCCNC(=O)COCCOCCNC(=O)COCCOCCNC(=O)CC[C@H](NC(=O)CCCCCCCCCCCCCCCCC(=O)O)C(=O)O)C(=O)N[C@@H](CCC(N)=O)C(=O)N[C@@H](CCC(N)=O)C(=O)N[C@@H](CC(=O)O)C(=O)N[C@@H](Cc1ccccc1)C(=O)N[C@H](C(=O)N[C@@H](CC(N)=O)C(=O)N[C@@H](Cc1c[nH]c2ccccc12)C(=O)N[C@@H](CC(C)C)C(=O)N[C@@H](CC(C)C)C(=O)N[C@@H](C)C(=O)N[C@@H](CCC(N)=O)C(=O)N[C@@H](CCCNC(=N)N)C(N)=O)C(C)C)[C@@H](C)CC [AT377] (H-EGTFISDYSIAMDRIK([AEEA-AEEA-γGlu-C18 diacid])QQDFVNWLLAQR-NH2; N-terminus assumed),"cAMP antagonism, % inhib",human GIP receptor [1],90%
same,"cAMP antagonism, % inhib",human GIP receptor [2],100%
same,IC50,human GIP receptor [2],19 nM
same,"cAMP agonism, Emax",human GIP receptor [3],No Agonism
same,Emax,human GIP receptor [4],0%
